Test results reported in ChEMBL document CHEMBL4732098, “Alkylated monoterpene indole alkaloid derivatives as potent P-glycoprotein inhibitors in resistant cancer cells” (Eur J Med Chem, 2021).

Key:
L5178Y [1] = assay: Cytotoxicity against mouse L5178Y cells transfected with human ABCB1 assessed as reduction in cell viability incubated for 24 hrs by MTT assay; type: cell-based
L5178Y [2] = assay: Cytotoxicity against mouse L5178Y cells assessed as reduction in cell viability incubated for 24 hrs by MTT assay; type: cell-based
COLO 205 = assay: Cytotoxicity against human COLO 205 cells assessed as reduction in cell viability incubated for 24 hrs by MTT assay; type: cell-based; conditions: COLO 205, 24 h
L5178Y [3] = assay: Synergistic cytotoxicity against mouse L5178Y cells transfected with human ABCB1 assessed as combination index measured after 72 hrs in presence doxorubicin by MTT assay based Chou-Talalay method; type: functional
COLO 320 [4] = assay: Cytotoxicity against human COLO 320 cells assessed as reduction in cell viability incubated for 24 hrs by MTT assay; type: cell-based; conditions: COLO 320, 24 h
COLO 320 [5] = assay: Synergistic cytotoxicity against human resistant COLO 320 cells assessed as combination index measured after 72 hrs in presence doxorubicin by MTT assay based Chou-Talalay method; type: functional; conditions: dose 2 µM

| SMILES | IC50 (L5178Y [1]) | IC50 (L5178Y [2]) | IC50 (COLO 205) | CI (L5178Y [3]) | IC50 (COLO 320 [4]) | CI (COLO 320 [5]) |
| --- | --- | --- | --- | --- | --- | --- |
| CC[C@@H]1CN(C)[C@H]2Cc3c(n(CCc4ccc(Br)cc4)c4ccccc34)C(=O)C[C@H]1C2C(=O)OC (some centres undefined) | 59.3 µM | 71 µM | > 100 µM | <1 | > 100 µM | – |
| CC[C@@H]1CN(C)[C@H]2Cc3c(n(Cc4cccc(C)c4)c4ccccc34)C(=O)C[C@H]1C2C(=O)OC (some centres undefined) | 52.8 µM | 41.9 µM | 93.6 µM | <1 | 82.2 µM | – |
| CC[C@H]1CN(C)[C@H]2Cc3c([nH]c4ccccc34)C(=O)C[C@H]1C2C(=O)OC (some centres undefined) | 91.8 µM | 62.5 µM | 40.4 µM | – | 71.6 µM | – |
| CC[C@H]1CN(C)[C@H]2Cc3c(n(Cc4ccc(Br)cc4)c4ccccc34)C(=O)C[C@H]1C2C(=O)OC (some centres undefined) | 38.5 µM | 34.7 µM | 28.4 µM | <1 | 24.8 µM | – |
| CC[C@@H]1CN(C)[C@H]2Cc3c([nH]c4ccccc34)C(=O)C[C@H]1C2C(=O)OC (some centres undefined) | 78.8 µM | 55.9 µM | > 100 µM | – | > 100 µM | – |
| CC[C@@H]1CN(C)[C@H]2Cc3c(n(Cc4ccc(C(=O)c5ccccc5)cc4)c4ccccc34)C(=O)C[C@H]1C2C(=O)OC (some centres undefined) | > 100 µM | 89.3 µM | > 100 µM | – | > 100 µM | – |
| CC[C@@H]1CN(C)[C@H]2Cc3c(n(Cc4ccc([N+](=O)[O-])cc4)c4ccccc34)C(=O)C[C@H]1C2C(=O)OC (some centres undefined) | 81 µM | 63.3 µM | > 100 µM | – | 86.2 µM | – |
| CC[C@@H]1CN(C)[C@H]2Cc3c(n(CCc4ccc(OC)cc4)c4ccccc34)C(=O)C[C@H]1C2C(=O)OC (some centres undefined) | 37.2 µM | 25.5 µM | 80 µM | <1 | 49 µM | <1 |
| CC[C@@H]1CN(C)[C@H]2Cc3c(n(Cc4cccc(Cl)c4)c4ccccc34)C(=O)C[C@H]1C2C(=O)OC (some centres undefined) | 38.1 µM | 38.4 µM | > 100 µM | <1 | 74.7 µM | – |
| CC[C@@H]1CN(C)[C@H]2Cc3c(n(Cc4ccc(C)cc4)c4ccccc34)C(=O)C[C@H]1C2C(=O)OC (some centres undefined) | 37.1 µM | 31.8 µM | 11.8 µM | <1 | 53 µM | <1 |
| CC[C@@H]1CN(C)[C@H]2Cc3c(n(CCCO)c4ccccc34)C(=O)C[C@H]1C2C(=O)OC (some centres undefined) | > 100 µM | > 100 µM | > 100 µM | – | > 100 µM | – |
| CC[C@@H]1CN(C)[C@H]2Cc3c(n(Cc4ccc(Br)cc4)c4ccccc34)C(=O)C[C@H]1C2C(=O)OC (some centres undefined) | 45 µM | 36.4 µM | 39.7 µM | <1 | 45.7 µM | – |
| CC[C@@H]1CN(C)[C@H]2Cc3c(n(CCc4cccc(OC)c4)c4ccccc34)C(=O)C[C@H]1C2C(=O)OC (some centres undefined) | 78.4 µM | 40.6 µM | > 100 µM | <1 | > 100 µM | – |
| CCCn1c2c(c3ccccc31)C[C@H]1C(C(=O)OC)[C@H](CC2=O)[C@H](CC)CN1C (some centres undefined) | 48.5 µM | 35.1 µM | > 100 µM | <1 | > 100 µM | – |
| CC[C@H]1CN(C)[C@H]2Cc3c(n(Cc4ccc(Cl)cc4)c4ccccc34)C(=O)C[C@H]1C2C(=O)OC (some centres undefined) | 24.1 µM | 32.4 µM | 15.9 µM | <1 | 23.4 µM | – |
| CCCn1c2c(c3ccccc31)C[C@H]1C(C(=O)OC)[C@H](CC2=O)[C@@H](CC)CN1C (some centres undefined) | 34.7 µM | 45.1 µM | 25.2 µM | <1 | 40.5 µM | – |
| CC[C@@H]1CN(C)[C@H]2Cc3c(n(Cc4cc(OC)cc(OC)c4)c4ccccc34)C(=O)C[C@H]1C2C(=O)OC (some centres undefined) | 39.1 µM | 27.8 µM | > 100 µM | <1 | > 100 µM | – |
| CC[C@H]1CN(C)[C@H]2Cc3c(n(CC)c4ccccc34)C(=O)C[C@H]1C2C(=O)OC (some centres undefined) | 48.4 µM | 66.3 µM | > 100 µM | <1 | > 100 µM | – |
| CC[C@@H]1CN(C)[C@H]2Cc3c(n(CCc4cccc(Br)c4)c4ccccc34)C(=O)C[C@H]1C2C(=O)OC (some centres undefined) | 85.6 µM | 39.6 µM | > 100 µM | <1 | 94.8 µM | – |
| C=CCn1c2c(c3ccccc31)C[C@H]1C(C(=O)OC)[C@H](CC2=O)[C@H](CC)CN1C (some centres undefined) | 96.6 µM | 64.2 µM | > 100 µM | – | > 100 µM | – |
| CC[C@@H]1CN(C)[C@H]2Cc3c(n(CC)c4ccccc34)C(=O)C[C@H]1C2C(=O)OC (some centres undefined) | 74.4 µM | 69.4 µM | > 100 µM | – | > 100 µM | – |
| CC[C@@H]1CN(C)[C@H]2Cc3c(n(Cc4ccc(Cl)cc4)c4ccccc34)C(=O)C[C@H]1C2C(=O)OC (some centres undefined) | 43.2 µM | 48.3 µM | 55.5 µM | <1 | 61.3 µM | – |
| CC[C@H]1CN(C)[C@H]2Cc3c(n(Cc4ccc(OC)cc4)c4ccccc34)C(=O)C[C@H]1C2C(=O)OC (some centres undefined) | 35.6 µM | 50.7 µM | 58.9 µM | <1 | 60.3 µM | <1 |
| CC[C@@H]1CN(C)[C@H]2Cc3c(n(Cc4ccccn4)c4ccccc34)C(=O)C[C@H]1C2C(=O)OC (some centres undefined) | > 100 µM | 97.6 µM | > 100 µM | – | > 100 µM | – |
| CC[C@@H]1CN(C)[C@H]2Cc3c(n(Cc4ccccc4C)c4ccccc34)C(=O)C[C@H]1C2C(=O)OC (some centres undefined) | 61 µM | 42.2 µM | > 100 µM | <1 | 97.5 µM | – |
| CC[C@@H]1CN(C)[C@H]2Cc3c(n(Cc4cccc([N+](=O)[O-])c4)c4ccccc34)C(=O)C[C@H]1C2C(=O)OC (some centres undefined) | 58.9 µM | 63.1 µM | > 100 µM | <1 | > 100 µM | – |
| CC[C@@H]1CN(C)[C@H]2Cc3c(n(Cc4ccc(OC)cc4)c4ccccc34)C(=O)C[C@H]1C2C(=O)OC (some centres undefined) | 80.1 µM | 86 µM | 90.6 µM | – | 76.8 µM | – |
| CC[C@@H]1CN(C)[C@H]2Cc3c(n(Cc4cccc(OC)c4)c4ccccc34)C(=O)C[C@H]1C2C(=O)OC (some centres undefined) | 36.7 µM | 42.1 µM | 88.4 µM | <1 | 84.4 µM | – |
